# Experimental data from patent US9751869B2, “LXR modulators” (BRISTOL-MYERS SQUIBB COMPANY, priority 2013, dated 2017).
# Target: T1, LXRβ (Homo sapiens, UniProt P55055)
# T1 construct: Co-transfection expression plasmids, comprising full-length LXRα (pCMX-h LXRα or LXRβ (pCMX-hLXRβ)); expressed in transfected cells; host or cells: CV-1 African green monkey kidney cells, transient transfection with pCMX-hLXRβ
# T1 sequence (P55055 1-460): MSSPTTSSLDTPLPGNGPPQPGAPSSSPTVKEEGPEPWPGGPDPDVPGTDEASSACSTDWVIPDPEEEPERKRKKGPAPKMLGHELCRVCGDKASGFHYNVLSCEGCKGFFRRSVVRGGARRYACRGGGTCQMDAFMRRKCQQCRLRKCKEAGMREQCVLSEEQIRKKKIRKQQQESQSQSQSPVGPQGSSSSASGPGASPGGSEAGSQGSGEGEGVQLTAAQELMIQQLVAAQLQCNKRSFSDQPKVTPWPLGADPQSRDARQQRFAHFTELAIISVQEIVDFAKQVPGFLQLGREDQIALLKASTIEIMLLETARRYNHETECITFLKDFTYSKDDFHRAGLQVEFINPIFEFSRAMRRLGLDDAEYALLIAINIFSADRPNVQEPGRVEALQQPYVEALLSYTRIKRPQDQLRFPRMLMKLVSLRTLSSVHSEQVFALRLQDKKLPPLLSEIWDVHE
# T1 sequence (P19793 1-462 partner): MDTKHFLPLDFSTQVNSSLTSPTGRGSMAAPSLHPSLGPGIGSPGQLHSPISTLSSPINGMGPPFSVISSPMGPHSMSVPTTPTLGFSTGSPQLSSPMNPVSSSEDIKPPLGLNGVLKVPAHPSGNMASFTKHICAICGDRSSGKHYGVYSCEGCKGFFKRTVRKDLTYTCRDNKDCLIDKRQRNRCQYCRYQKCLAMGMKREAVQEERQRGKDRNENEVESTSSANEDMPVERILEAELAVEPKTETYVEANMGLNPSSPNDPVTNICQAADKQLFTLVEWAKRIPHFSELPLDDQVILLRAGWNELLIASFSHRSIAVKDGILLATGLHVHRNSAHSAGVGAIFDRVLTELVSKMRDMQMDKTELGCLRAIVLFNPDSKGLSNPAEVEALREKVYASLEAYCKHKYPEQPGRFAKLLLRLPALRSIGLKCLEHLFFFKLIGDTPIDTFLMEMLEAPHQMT
# Experiment: LXR/LXRE co-transfection assay (luciferase reporter) in CV-1 cells, LXRβ
# Assay type: cell-based
# Conditions: for EC50: CV-1 cells transfected with pCMX-hLXRβ and LXREx1-Tk-Luciferase, 20 hours incubation, read-out: LXRbeta agonism EC50; for Emax: read-out: LXRbeta % EFFICACY
# Excerpt: To measure the ability of compounds to activate or inhibit the transcriptional activity of LXR in a cell based assay, the co-transfection assay was used. It has been shown that LXR functions as a heterodimer with RXR. For the co-transfection assay, expression plasmids for LXRα and LXRβ are introduced separately via transient transfection into mammalian cells along with a luciferase reporter plasmid that contains one copy of a DNA sequence that is bound by LXR-RXR heterodimers (LXRE; Willy, P. et. al. 1995). LXRs heterodimerize with the endogenous RXR. Treatment of transfected cells with an LXR agonist increases the transcriptional activity of LXR, which is measured by an increase in luciferase activity.
# Co-transfection expression plasmids, comprising full-length LXRα (pCMX-h LXRα or LXRβ (pCMX-hLXRβ), reporter plasmid (LXREx1-Tk-Luciferase), and control (pCMX-Galactosidase expression vector) (Willey et al. Genes & Development 9 1033-1045 (1995)).
# CV-1 cells were prepared 24 hours prior to the experiment by plating them into T-175 flasks or 500 cm^2 dishes in order to achieve 70-80% confluency on the day of the transfection. The number of cells to be transfected was determined by the number of plates to be screened. Each well of a 384 well plate requires 1.5×10^4 cells. DNA Transfection Reagent was prepared by mixing the required plasmid DNAs with a cationic lipid transfection reagent Transit 2020 (Mirus Bio) for CV1 by following the instructions provided with the reagents. Optimal DNA amounts were determined empirically per cell line and size of vessel to be transfected. For each T175 cm^2 flask a total of 44.4 ug for CV1 of DNA, 133 ul Transit2020 and 4.5 ml DMEM for CV1 was mixed and added. Cells were then incubated at least 5 hours at 37° C. to prepare screening cells.
# Assay plates were prepared by dispensing 5 μL of compound per well of a 384 well plate to achieve final compound concentration of 10 μM and no more than 0.5% DMSO. Media was removed from the screening cells, the cells trypsinized, harvested cells by centrifugation, counted, and plated at a density of approximately 1.5×10^4 cells in the 384 well assay plate prepared above in a volume of about 95 uL. Assay plates containing both compounds and screening cells (100 μL in total volume) were incubated for 20 hours at 37° C.
# After incubation with compounds, media was removed from the cells and luciferase assay reagent (30 μL/well) added. After ˜2 minutes at ambient temperature, the assay plates were read on a luminometer (PE Biosystems Northstar reader with on-board injectors, or Envision (Perkin Elmer) or equivalent).
# The LXR/LXRE co-transfection assay can be used to establish the EC50/IC50 values for potency and percent activity or inhibition for efficacy. Efficacy defines the activity of a compound relative to a high control ((N-(3-((4-fluorophenyl)-(naphthalene-2-sulfonyl)amino)propyl)-2,2-dimethylpropionamide)) or a low control (DMSO/vehicle). The dose response curves are generated from a 10 point curve with concentrations differing by ½ LOG units. Each point represents the average of 4 wells of data from a 384 well plate.
# The data from this assay is fitted to the following equation, from which the EC50 value may be solved: Y=Bottom+(Top−Bottom)/(1+10^((log EC50-X)*HillSlope)).
# The EC50/IC50 is therefore defined as the concentration at which an agonist or antagonist elicits a response that is halfway between the Top (maximum) and Bottom (baseline) values. The EC50/IC50 values represented are the averages of at least 2 and normally 3 independent experiments. The determination of the relative efficacy or % control for an agonist is by comparison to the maximum response achieved by ((N-(3-((4-fluorophenyl)-(naphthalene-2-sulfonyl)-amino)propyl)-2,2-dimethylpropionamide) that is measured individually in each dose response experiment.
# Table 1 lists LXRβ EC50 values and % efficacy measurements in the cotransfection assay for examples of this invention.
# [1] = CV-1 cells, relative to maximum response of high control N-(3-((4-fluorophenyl)-(naphthalene-2-sulfonyl)amino)propyl)-2,2-dimethylpropionamide
EC50 [nM],Emax [1] [%],LXRbeta % EFFICACY [1] [%],SMILES
12,66,,"CC(=O)c1cc(-c2ccc(-c3cc(F)c(CO)c(S(C)(=O)=O)c3)cc2-c2oc(C)nc2-c2ccc3c(c2)OC(F)(F)O3)n(C)n1 [Example 133, 1-(5-(3-(4-(2,2-difluorobenzo[d][1,3]dioxol-5-yl)-2-methyloxazol-5-yl)-3′-fluoro-4′-(hydroxymethyl)-5′-(methylsulfonyl)-[1,1′-biphenyl]-4-yl)-1-methyl-1H-pyrazol-3-yl)ethanone]"
143,63,,"Cc1nc(-c2cc(-c3cccc(S(C)(=O)=O)c3)ccc2-n2nc(C(F)(F)F)cc2Cl)c(-c2ccc(OC(F)(F)F)cc2)o1 [Example 406, 4-(4-(5-chloro-3-(trifluoromethyl)-1H-pyrazol-1-yl)-3′-(methylsulfonyl)biphenyl-3-yl)-2-methyl-5-(4-(trifluoromethoxy)phenyl)oxazole]"
41,80,,"Cc1nc(-c2ccc(OC(F)(F)F)cc2)c(-c2cc(-c3cccc(C(C)(C)C(N)=O)c3)ccc2-n2cc(Cl)c(C(F)(F)F)n2)o1 [Example 430, 2-(4′-(4-chloro-3-(trifluoromethyl)-1H-pyrazol-1-yl)-3′-(2-methyl-4-(4-(trifluoromethoxy)phenyl)oxazol-5-yl)-[1,1′-biphenyl]-3-yl)-2-methylpropanamide]"
37,69,,Cc1nc(-c2ccc(OC(F)F)cc2Cl)c(-c2cc(-c3cccc(S(C)(=O)=O)c3)ccc2-n2cc(Cl)c(C(F)(F)F)n2)o1 [Example 431]
227,93,,"Cc1cc(C(F)(F)F)nn1-c1ccc(-c2cc(Cl)c(CO)c(S(C)(=O)=O)c2)cc1-n1nncc1-c1ccc(OC(F)(F)F)cc1 [Example 302, [3-chloro-5-(methylsulfonyl)-4′-[5-methyl-3-(trifluoromethyl)-1H-pyrazol-1-yl]-3′-(5-{4-[(trifluoromethyl)oxy]phenyl}-1H-1,2,3-triazol-1-yl)biphenyl-4-yl]methanol]"
93,83,,"COc1ncc(-c2nc(C)oc2-c2cc(-c3cc(F)c(CO)c(S(C)(=O)=O)c3)ccc2-n2cc(Cl)c(C(F)(F)F)n2)cn1 [Example 428, (4′-(4-chloro-3-(trifluoromethyl)-1H-pyrazol-1-yl)-3-fluoro-3′-(4-(2-methoxypyrimidin-5-yl)-2-methyloxazol-5-yl)-5-(methylsulfonyl)-[1,1′-biphenyl]-4-yl)methanol]"
24,112,,"Cc1nc(-c2ccc3c(c2)OC(F)(F)O3)c(-c2cc(-c3cccc(S(C)(=O)=O)c3)ccc2-n2nc(C(F)(F)F)cc2C)o1 [Example 328, 4-(2,2-difluorobenzo[d][1,3]dioxol-5-yl)-2-methyl-5-(4-(5-methyl-3-(trifluoromethyl)-1H-pyrazol-1-yl)-3′-(methylsulfonyl)biphenyl-3-yl)oxazole]"
663,72,,"Cc1nc(-c2ccc3c(c2)OC(F)(F)O3)c(-c2cc(-c3cc(F)c(CO)c(S(C)(=O)=O)c3)ccc2-c2cc(C(F)(F)C#N)nn2C)o1 [Example 47, 2-(5-(3-(4-(2,2-difluorobenzo[d][1,3]dioxol-5-yl)-2-methyloxazol-5-yl)-3′-fluoro-4′-(hydroxymethyl)-5′-(methylsulfonyl)biphenyl-4-yl)-1-methyl-1H-pyrazol-3-yl)-2,2-difluoroacetonitrile]"
91,79,,"CN(C)S(=O)(=O)c1cccc(-c2ccc(-c3cc(C(C)(F)F)nn3C)c(-n3nncc3-c3ccc(OC(F)(F)F)cc3)c2)c1 [Example 19, 4′-[3-(1,1-difluoroethyl)-1-methyl-1H-pyrazol-5-yl]-N,N-dimethyl-3′-(5-{4-[(trifluoromethyl)oxy]phenyl}-1H-1,2,3-triazol-1-yl)biphenyl-3-sulfonamide]"
497,62,,"Cc1nc(-c2ccc3c(c2)OC(F)(F)O3)c(-c2cc(-c3cc(F)c(CO)c(S(C)(=O)=O)c3)ccc2-c2cc(C(F)(F)C(=O)N3CCCC3)nn2C)o1 [Example 83, 2-(5-(3-(4-(2,2-difluorobenzo[d][1,3]dioxol-5-yl)-2-methyloxazol-5-yl)-3′-fluoro-4′-(hydroxymethyl)-5′-(methylsulfonyl)-[1,1′-biphenyl]-4-yl)-1-methyl-1H-pyrazol-3-yl)-2,2-difluoro-1-(pyrrolidin-1-yl)ethanone]"
890,,50,"Cc1nc(-c2ccc(OC(F)(F)F)cc2)c(-c2cc(-c3cccc(S(C)(=O)=O)c3)ccc2-n2ccc(C(C)O)n2)o1 (single isomer, unassigned) [Example 368, 1-(1-(3-(2-methyl-4-(4-(trifluoromethoxy)phenyl)oxazol-5-yl)-3′-(methylsulfonyl)-[1,1′-biphenyl]-4-yl)-1H-pyrazol-3-yl)ethanol]"
7,74,,"Cc1nc(-c2ccc3c(c2)OC(F)(F)O3)c(-c2cc(-c3cc(F)c(CO)c(S(C)(=O)=O)c3)ccc2-n2cc(Cl)c(C(F)(F)F)n2)o1 [Example 420, (4′-(4-chloro-3-(trifluoromethyl)-1H-pyrazol-1-yl)-3′-(4-(2,2-difluorobenzo[d][1,3]dioxol-5-yl)-2-methyloxazol-5-yl)-3-fluoro-5-(methylsulfonyl)-[1,1′-biphenyl]-4-yl) methanol]"
105,38,,"Cc1nc(-c2ccc3c(c2)OC(F)(F)O3)c(-c2cc(-c3cc(F)c(CO)c(S(C)(=O)=O)c3)ccc2-c2cc(C(C)(C)O)nn2C)o1 [Example 92, 2-(5-(3-(4-(2,2-difluorobenzo[d][1,3]dioxol-5-yl)-2-methyloxazol-5-yl)-3′-fluoro-4′-(hydroxymethyl)-5′-(methylsulfonyl)biphenyl-4-yl)-1-methyl-1H-pyrazol-3-yl)propan-2-ol]"
50,83,,Cc1nc(-c2ccc(OC(F)F)c(F)c2)c(-c2cc(-c3cccc(S(C)(=O)=O)c3)ccc2-n2cc(Cl)c(C(F)(F)F)n2)o1 [Example 433]
